Test system: HOP-62 complex spheroids with HUVEC/MSC, viability
Experiment: Anticancer human tumor HOP-62 cell line growth inhibition [RAS];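 note: spheroids exposed to agents for seven days before readout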;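 for viability, T/C: 100% = DMSO vehicle control viability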
Details: for IC50: curve of first compound; for viability, T/C: stronger effect = lower value
Outline: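 Multi-cell-type spheroids: tumor cells plus HUVEC endothelial cells and mesenchymal stem cells. RAS-pathway inhibitors were combined with targeted agents, each dosed in half-log steps down from clinical Cmax, or from 10 microM when Cmax was unknown.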

[1] = second compound 0.0316 µM, first compound 0.000949 µM
[2] = second compound 0.0316 µM, first compound 0.003 µM
[3] = second compound 0.0316 µM, first compound 0.00949 µM
[4] = second compound 0.0316 µM, first compound 0.03 µM
[5] = second compound 0.0316 µM, first compound 0.0949 µM
[6] = second compound 0.0316 µM, first compound 0.3 µM
[7] = second compound 0.1 µM, first compound 0.000949 µM
[8] = second compound 0.1 µM, first compound 0.003 µM
[9] = second compound 0.1 µM, first compound 0.00949 µM
[10] = second compound 0.1 µM, first compound 0.03 µM
[11] = second compound 0.1 µM, first compound 0.0949 µM
[12] = second compound 0.1 µM, first compound 0.3 µM
[13] = second compound 0.316 µM, first compound 0.000949 µM
[14] = second compound 0.316 µM, first compound 0.003 µM
[15] = second compound 0.316 µM, first compound 0.00949 µM
[16] = second compound 0.316 µM, first compound 0.03 µM
[17] = second compound 0.316 µM, first compound 0.0949 µM
[18] = second compound 0.316 µM, first compound 0.3 µM
[19] = second compound 1 µM, first compound 0.000949 µM
[20] = second compound 1 µM, first compound 0.003 µM
[21] = second compound 1 µM, first compound 0.00949 µM
[22] = second compound 1 µM, first compound 0.03 µM
[23] = second compound 1 µM, first compound 0.0949 µM
[24] = second compound 1 µM, first compound 0.3 µM
[25] = second compound 3.16 µM, first compound 0.000949 µM
[26] = second compound 3.16 µM, first compound 0.003 µM
[27] = second compound 3.16 µM, first compound 0.00949 µM
[28] = second compound 3.16 µM, first compound 0.03 µM
[29] = second compound 3.16 µM, first compound 0.0949 µM
[30] = second compound 3.16 µM, first compound 0.3 µM
[31] = second compound 10 µM, first compound 0.000949 µM
[32] = second compound 10 µM, first compound 0.003 µM
[33] = second compound 10 µM, first compound 0.00949 µM
[34] = second compound 10 µM, first compound 0.03 µM
[35] = second compound 10 µM, first compound 0.0949 µM
[36] = second compound 10 µM, first compound 0.3 µM

## CC1(C)CCC(Nc2ncc(C(F)(F)F)c(-c3c[nH]c4c(P(C)(C)=O)c(C#N)ccc34)n2)CN1 (centres undefined) + C#Cc1c(F)ccc2cc(O)cc(-c3ncc4c(N5CC6CCC(C5)N6)nc(OCC56CCCN5CC(F)C6)nc4c3F)c12
Second compound 0.0316 µM
  IC50: 2.01 nM
Second compound 0.1 µM
  IC50: 1.73 nM
Second compound 0.316 µM
  IC50: 2.05 nM
Second compound 1 µM
  IC50: 1.8 nM
Second compound 3.16 µM
  IC50: 1.33 nM
Second compound 10 µM
  IC50: < 0.949 nM
[1]
  viability, T/C: 76.3%
[2]
  viability, T/C: 35.9%
[3]
  viability, T/C: 22.1%
[4]
  viability, T/C: 24.1%
[5]
  viability, T/C: 27.6%
[6]
  viability, T/C: 25.8%
[7]
  viability, T/C: 72.1%
[8]
  viability, T/C: 30.1%
[9]
  viability, T/C: 23.6%
[10]
  viability, T/C: 24%
[11]
  viability, T/C: 25.8%
[12]
  viability, T/C: 28.5%
[13]
  viability, T/C: 73.2%
[14]
  viability, T/C: 38.5%
[15]
  viability, T/C: 21%
[16]
  viability, T/C: 21.6%
[17]
  viability, T/C: 26%
[18]
  viability, T/C: 29.3%
[19]
  viability, T/C: 75.3%
[20]
  viability, T/C: 29.9%
[21]
  viability, T/C: 23.4%
[22]
  viability, T/C: 25%
[23]
  viability, T/C: 26%
[24]
  viability, T/C: 25.2%
[25]
  viability, T/C: 57.4%
[26]
  viability, T/C: 32.1%
[27]
  viability, T/C: 26.4%
[28]
  viability, T/C: 24.7%
[29]
  viability, T/C: 27.8%
[30]
  viability, T/C: 26.4%
[31]
  viability, T/C: 47.8%
[32]
  viability, T/C: 30.8%
[33]
  viability, T/C: 29.3%
[34]
  viability, T/C: 28.3%
[35]
  viability, T/C: 31%
[36]
  viability, T/C: 33.9%

## CCc1c2c(nc3ccc(O)cc13)-c1cc3c(c(=O)n1C2)COC(=O)[C@]3(O)CC + C#Cc1c(F)ccc2cc(O)cc(-c3ncc4c(N5CC6CCC(C5)N6)nc(OCC56CCCN5CC(F)C6)nc4c3F)c12
Second compound 0.0316 µM
  IC50: 1.14 nM
Second compound 0.1 µM
  IC50: 1.31 nM
Second compound 0.316 µM
  IC50: 1.19 nM
Second compound 1 µM
  IC50: 1.23 nM
Second compound 3.16 µM
  IC50: 0.972 nM
Second compound 10 µM
  IC50: < 0.949 nM
[1]
  viability, T/C: 56.3%
[2]
  viability, T/C: 16.6%
[3]
  viability, T/C: 11.4%
[4]
  viability, T/C: 5.6%
[5]
  viability, T/C: 3.66%
[6]
  viability, T/C: 2.78%
[7]
  viability, T/C: 62.9%
[8]
  viability, T/C: 15.6%
[9]
  viability, T/C: 10.1%
[10]
  viability, T/C: 4.19%
[11]
  viability, T/C: 5.31%
[12]
  viability, T/C: 3.12%
[13]
  viability, T/C: 59.1%
[14]
  viability, T/C: 13.8%
[15]
  viability, T/C: 8.76%
[16]
  viability, T/C: 5.75%
[17]
  viability, T/C: 3.69%
[18]
  viability, T/C: 3.17%
[19]
  viability, T/C: 60.8%
[20]
  viability, T/C: 12.7%
[21]
  viability, T/C: 7.48%
[22]
  viability, T/C: 3.47%
[23]
  viability, T/C: 3.07%
[24]
  viability, T/C: 2.06%
[25]
  viability, T/C: 51.1%
[26]
  viability, T/C: 10.9%
[27]
  viability, T/C: 6.45%
[28]
  viability, T/C: 3.95%
[29]
  viability, T/C: 2.84%
[30]
  viability, T/C: 2.67%
[31]
  viability, T/C: 26.9%
[32]
  viability, T/C: 11.7%
[33]
  viability, T/C: 8.96%
[34]
  viability, T/C: 4.94%
[35]
  viability, T/C: 5.28%
[36]
  viability, T/C: 3.97%
